We go through twelve molecules from PMC3047451 (Journal of medicinal chemistry, 2011).

One experiment deals with δ-opioid receptor (Homo sapiens, UniProt P41143). The experiment is described as follows: biochemical. It counts as binding.
For experiment [1], the target named is T1, μ-opioid receptor (Homo sapiens, UniProt P35372). As to conditions: for Ki: read-out: Ki, μ.
Another experiment concerns the target κ-opioid receptor (Homo sapiens, UniProt P41145). Description: biochemical. Format: binding.
Experiment [2] addresses T2, cloned human μ-opioid receptor (Homo sapiens, UniProt P35372). Conditions: for Ke: shift of DAMGO dose-response curve by test agent, hMOR-CHO membranes, ± SD; for μ-antagonist potency compared with naloxone or naltrexone (in words): [35S]GTP-γ-S assay; for fold more potent than naloxone as μ-antagonist: [35S]GTP-γ-S functional binding assay.
Experiment [3] concerns the target T2, cloned human μ-opioid receptor. Conditions: 10 μM, non-dependent hMOR cells.
The target is the same in experiment [4]. The experiment is described as follows: biochemical.
Experiment [5] concerns the target T1, μ-opioid receptor. The experiment is described as follows: biochemical.
For experiment [6], the target named is T2, cloned human μ-opioid receptor. Conditions: full inverse agonist curve; cited from earlier work.
Where [7] appears, read: read-out: Ki, δ, 125I-IOXY, hDOR-CHO, n = 3 (± SD).

The structures appear in SMILES notation. Entries after “also recorded” stand apart in the source; their conditions may differ. Like-named read-outs stand apart in the source and are kept apart here.

Sequence of δ-opioid receptor (P41143 whole entry): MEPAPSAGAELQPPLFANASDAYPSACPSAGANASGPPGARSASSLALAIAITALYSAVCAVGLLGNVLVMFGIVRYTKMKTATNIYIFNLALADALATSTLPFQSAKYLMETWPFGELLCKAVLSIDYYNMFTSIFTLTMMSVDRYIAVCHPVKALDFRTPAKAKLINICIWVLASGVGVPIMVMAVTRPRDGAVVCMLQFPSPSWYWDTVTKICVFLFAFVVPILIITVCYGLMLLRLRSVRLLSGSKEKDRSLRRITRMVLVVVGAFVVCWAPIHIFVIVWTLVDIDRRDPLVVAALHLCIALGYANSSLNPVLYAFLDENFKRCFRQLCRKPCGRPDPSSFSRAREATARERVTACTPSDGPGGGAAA
Sequence of κ-opioid receptor (P41145 whole entry): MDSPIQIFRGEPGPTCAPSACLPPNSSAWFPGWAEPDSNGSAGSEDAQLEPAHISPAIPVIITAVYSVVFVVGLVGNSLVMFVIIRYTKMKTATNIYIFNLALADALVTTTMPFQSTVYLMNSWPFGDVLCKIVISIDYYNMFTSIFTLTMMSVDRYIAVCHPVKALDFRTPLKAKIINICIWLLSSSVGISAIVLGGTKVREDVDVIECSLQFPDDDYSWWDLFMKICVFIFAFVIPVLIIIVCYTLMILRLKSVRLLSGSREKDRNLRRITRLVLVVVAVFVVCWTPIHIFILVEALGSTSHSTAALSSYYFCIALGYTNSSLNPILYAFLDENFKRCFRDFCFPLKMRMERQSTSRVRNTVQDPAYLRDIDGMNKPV
T1 sequence (P35372 whole entry): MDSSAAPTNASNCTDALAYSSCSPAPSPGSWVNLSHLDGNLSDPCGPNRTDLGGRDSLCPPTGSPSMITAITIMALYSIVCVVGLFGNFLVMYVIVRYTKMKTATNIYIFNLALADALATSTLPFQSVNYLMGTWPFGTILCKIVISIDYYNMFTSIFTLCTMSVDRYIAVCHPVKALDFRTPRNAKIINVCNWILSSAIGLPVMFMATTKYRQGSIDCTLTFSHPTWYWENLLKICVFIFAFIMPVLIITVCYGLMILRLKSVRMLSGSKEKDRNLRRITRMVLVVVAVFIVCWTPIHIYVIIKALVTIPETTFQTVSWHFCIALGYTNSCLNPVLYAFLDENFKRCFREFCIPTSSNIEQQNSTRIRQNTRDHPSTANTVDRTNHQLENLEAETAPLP
T2 sequence (P35372 whole entry): as above

The term Ki denotes a measure of affinity in units of concentration, obtained from inhibition or displacement. With `Oc1cccc([C@]23CCC[C@H](C2)N(C[C@H]2C[C@H]2c2ccccc2)CC3)c1` [(+)−31, 3-((1R,5S)-2-(((1’S,2’R)-2-Phenylcyclopropyl)methyl)-2-azabicyclo[3.3.1]nonan-5-yl)phenol], the inhibition constant Ki at δ-opioid receptor (setting [7]) was 1980 ± 54 nM; on μ-opioid receptor [1] it was 459 ± 14 nM; on κ-opioid receptor (read-out: Ki, κ), 475 ± 33 nM. In addition, the “fold difference in μ Ki between the cis stereoisomers” value at μ-opioid receptor [1] is on record as around 42 fold. Moreover, the Ke in experiment [2] worked out at 33 ± 7 nM.
`Oc1cccc([C@@]23CCC[C@@H](C2)N(C[C@@H]2C[C@@H]2c2ccccc2)CC3)c1` [(−)−31, 3-((1S,5R)-2-(((1’R,2’S)-2-Phenylcyclopropyl)methyl)-2-azabicyclo[3.3.1]nonan-5-yl)phenol]: the Ki at δ-opioid receptor (setting [7]) amounted to 610 ± 25 nM; at μ-opioid receptor [1], 265 ± 17 nM; at κ-opioid receptor (read-out: Ki, κ), 153 ± 7 nM. Further, in experiment [2], the Ke is listed as 8.6 ± 1.9 nM.
Regarding `Oc1cccc([C@@]23CCC[C@@H](C2)N(C[C@H]2C[C@@H]2c2ccccc2)CC3)c1` [(+)−30, 3-((1S,5R)-2-(((1’S,2’S)-2-Phenylcyclopropyl)methyl)-2-azabicyclo[3.3.1]nonan-5-yl)phenol], the Ki at δ-opioid receptor (setting [7]) came to 183 ± 7 nM; on μ-opioid receptor [1], 16 ± 1 nM; on κ-opioid receptor (read-out: Ki, κ), 323 ± 15 nM. In experiment [2], the “μ-antagonist potency compared with naloxone or naltrexone (in words)” value is recorded as “equipotent with naloxone; also recorded: about as potent as naloxone”. In addition, the Ke in experiment [2] was determined as 2.2 ± 0.4 nM.
As for `Oc1cccc([C@@]23CCC[C@@H](C2)N(C[C@H]2C[C@H]2c2ccccc2)CC3)c1` [(+)−32, 3-((1S,5R)-2-(((1’S,2’R)-2-Phenylcyclopropyl)methyl)-2-azabicyclo[3.3.1]nonan-5-yl)phenol], the Ki on δ-opioid receptor (setting [7]) was found to be 547 ± 23 nM; at μ-opioid receptor [1], 76 ± 0.3 nM; on κ-opioid receptor (read-out: Ki, κ), 174 ± 12 nM. Also, in experiment [2], the Ke is recorded as 18 ± 6 nM.
In the case of `Oc1cccc([C@]23CCC[C@H](C2)N(C[C@@H]2C[C@H]2c2ccccc2)CC3)c1` [(−)−30, 3-((1R,5S)-2-(((1’R,2’R)-2-Phenylcyclopropyl)methyl)-2-azabicyclo[3.3.1]nonan-5-yl)phenol], on δ-opioid receptor (setting [7]), the inhibition constant (Ki) turned out to be 200 ± 10 nM. The inhibition constant (Ki) on μ-opioid receptor [1] came to 4 ± 0.27 nM. For the same molecule, the inhibition constant Ki on κ-opioid receptor (read-out: Ki, κ) is 210 ± 13 nM. Moreover, in experiment [2], the “μ-antagonist potency compared with naloxone or naltrexone (in words)” value is “about equipotent with naltrexone”, the “fold more potent than naloxone as μ-antagonist” value is reported as 7 fold and the Ke is given as 0.31 ± 0.06 nM.
As for `Oc1cccc([C@]23CCC[C@H](C2)N(C[C@@H]2C[C@@H]2c2ccccc2)CC3)c1` [(−)−32, 3-((1R,5S)-2-(((1’R,2’S)-2-Phenylcyclopropyl)methyl)-2-azabicyclo[3.3.1]nonan-5-yl)phenol], the Ki on δ-opioid receptor (setting [7]) was 196 ± 6 nM; at μ-opioid receptor [1], 11 ± 0.9 nM; on κ-opioid receptor (read-out: Ki, κ), 322 ± 22 nM. Moreover, in experiment [3], the “inverse agonist activity (effect on [35S]GTP-γ-S binding)” value is given as “did not act as inverse agonists”. For the same molecule, in experiment [2], the “μ-antagonist potency compared with naloxone or naltrexone (in words)” value is listed as “four fold less active as opioid antagonists”. Further, in experiment [2], the Ke came out at 8.2 ± 1.8 nM.
With `Oc1cccc([C@]23CCC[C@H](C2)N(CC=Cc2ccccc2)CC3)c1` [(−)−6, 3-((1R,5S)-2-Cinnamyl-2-azabicyclo[3.3.1]nonan-5-yl)phenol], the Ki at δ-opioid receptor is 152 ± 5 nM; on κ-opioid receptor, 225 ± 7 nM; at μ-opioid receptor [5], 6 ± 0.39 nM. For the same molecule, the “inverse agonist activity (effect on [35S]GTP-γ-S binding)” value in experiment [3] is listed as “little or no activity as an inverse agonist; also recorded: did not act as inverse agonists”. In experiment [4], this molecule displayed a Kb of 6.6 ± 0.7 nM. Further, the “μ-antagonist potency compared with naloxone or naltrexone (in words)” value in experiment [2] is “four fold less active as opioid antagonists”.
For `Oc1cccc([C@]23CCC[C@H](C2)N(C/C=C\c2ccccc2)CC3)c1` [(−)−9, 3-((1R,5S)-2-((Z)-3-phenylallyl)-2-azabicyclo[3.3.1]nonan-5-yl)phenol], the inhibition constant Ki on δ-opioid receptor worked out at 359 ± 18 nM; on κ-opioid receptor, 367 ± 18 nM; at μ-opioid receptor [5], 14 ± 0.7 nM. In experiment [4], this molecule gave a Kb of 7.7 ± 1.6 nM.
`Oc1cccc([C@@]23CCC[C@@H](C2)N(CC=Cc2ccccc2)CC3)c1` [(+)−6, 3-((1S,5R)-2-Cinnamyl-2-azabicyclo[3.3.1]nonan-5-yl)phenol]: the Ki on δ-opioid receptor worked out at 138 ± 5 nM; on κ-opioid receptor it was 125 ± 3 nM; on μ-opioid receptor [5] it was 2 ± 0.13 nM. For the same molecule, the Kb in experiment [4] is 0.58 ± 0.07 nM. Moreover, in experiment [2], the “fold more potent than naloxone as μ-antagonist” value came out at 4 fold.
As for `Oc1cccc([C@]23CCC[C@H](C2)N(C[C@H]2C[C@@H]2c2ccccc2)CC3)c1` [(+)−29, 3-((1R,5S)-2-(((1’S,2’S)-2-Phenylcyclopropyl)methyl)-2-azabicyclo[3.3.1]nonan-5-yl)phenol], the Ki at δ-opioid receptor (setting [7]) is 165 ± 7 nM; at μ-opioid receptor [1], 3 ± 0.26 nM; on κ-opioid receptor (read-out: Ki, κ), 72 ± 4 nM. Further, in experiment [2], the Ke is 0.17 ± 0.02 nM.
Regarding `Oc1cccc([C@@]23CCC[C@@H](C2)N(C/C=C\c2ccccc2)CC3)c1` [(+)−9, 3-((1S,5R)-2-((Z)-3-phenylallyl)-2-azabicyclo[3.3.1]nonan-5-yl)phenol], the inhibitory constant (Ki) came to 454 ± 25 nM at δ-opioid receptor, 123 ± 4 nM at κ-opioid receptor and 26 ± 2 nM on μ-opioid receptor [5]. For the same molecule, the “inverse agonist activity at non-dependent μ-opioid receptors” value in experiment [6] was “inverse agonist”. In addition, in experiment [4], the Kb was determined as 3.1 ± 0.7 nM. The “μ-antagonist potency compared with naloxone or naltrexone (in words)” value in experiment [2] is reported as “about as potent as naloxone”.
In the case of `Oc1cccc([C@@]23CCC[C@@H](C2)N(C[C@@H]2C[C@H]2c2ccccc2)CC3)c1` [(−)−29, 3-((1S,5R)-2-(((1’R,2’R)-2-Phenylcyclopropyl)methyl)-2-azabicyclo[3.3.1]nonan-5-yl)phenol], the Ki at δ-opioid receptor (setting [7]) stood at 800 ± 29 nM; at μ-opioid receptor [1], 47 ± 3 nM; on κ-opioid receptor (read-out: Ki, κ), 390 ± 16 nM. For the same molecule, the Ke in experiment [2] was determined as 9.4 ± 1.5 nM.
